Values of other authors in patent US6719977B1, “Methods to potentiate cancer therapies” (The General Hospital Corporation, priority 1998, dated 2004).

Columns and labels:
[1] = infusion of collagenase
[2] = collagenase treatment
[3] = animal models
[4] = animal models; remark: listed apart in the source
[5] = infusion of relaxin; fluid-filled subcutaneous balloon
[6] = animal models; remark: listed apart in the source
fibroblast = conditions: a number of experimental settings

collagenase
penetration of small and large molecules into a tumor [1]: dramatically facilitates penetration | hydraulic conductance [2]: increases hydraulic conductance

relaxin
formation of fibrotic capsules surrounding impenetrable foreign bodies [3]: prevent | accumulation of collagen within implanted sponges [4]: prevent | resistance to balloon expansion (pressure-volume relationship) [5]: decreased the resistance to balloon expansion | parenchymal fibrosis accompanying oxidative pulmonary damage induced by bleomycin [6]: prevent

γ-interferon [a pleiotypic cytokine produced by helper T cells]
fibroblast proliferation and associated matrix deposition (fibroblast): inhibit fibroblast proliferation and associated matrix deposition
